Our source for the EC50 values is patent publication US8202856B2 (Merck Serono SA, priority 2007, dated 2012).

One experiment concerns the target S1P1 receptor (Homo sapiens, UniProt P21453). In words: 35S-GTPγS binding, membranes from CHO cells expressing S1P1. The experiment is classed as biochemical. The note with it: CHO cell membranes expressing S1P1. The gist of the method:
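Membranes (1–10 μg) from CHO cells expressing the receptor were incubated with compound in 20 mM HEPES pH 7.4, 10 mM MgCl2, 140 mM NaCl, 1.7 μM GDP, saponin and 0.2% BSA. [35S]GTPγS (added at 1.5 nM) was then bound for 60 min at 30 °C. Membrane-bound radioactivity, averaged over triplicates, is expressed relative to S1P activation (n=2).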
A general note: Binding of GTPγS marks nucleotide exchange on a G protein.

The target in another experiment is S1P3 receptor (Homo sapiens, UniProt Q99500). In words: 35S-GTPγS binding, membranes from CHO cells expressing S1P3. The format is biochemical. The following applies: CHO cell membranes expressing S1P3. The method, then: Receptor binding assay: Membranes were prepared from CHO cells expressing S1P1 or S1P3 for use in ligand and 35S-GTPTS binding studies. Cells were suspended in 50 mM TRIS, pH 7.4, 2 mM EDTA, 250 mM Sucrose (buffer A) and 1× Complete protease inhibitor cocktail (Roche), and disrupted at 4° C. by nitrogen decompression using a cell disruption bomb (Parr Instrument). Following centrifugation at 1000 RPM for 10 min at 4° C., the supernatant was suspended in buffer A and centrifuged again at 19000 RPM for 60 min at 4° C. The pellet was then suspended in 10 mM HEPES, pH 7.4, 1 mM EDTA, 250 mM Sucrose (Buffer B), and 1× Complete EDTA-free protease inhibitor cocktail and homogenized using a potter. Membranes were flash frozen in liquid nitrogen and stored at −80° C. [33P]sphingosine 1-phosphate (3000 Ci/mmol; American Radiolabeled Chemicals, Inc.) was added to test compounds in DMSO. Membranes and WGA SPA beads (GE Healthcare) were added to give a final volume of 100 μl in 96-well plates with assay concentrations of […] [33P]sphingosine 1-phosphate (respectively for S1P1 or S1P3), 50 mM HEPES, pH 7.5, 5 mM MgCl2, 100 mM NaCl, 0.4% fatty acid-free BSA, 1-5 μg/well of proteins and 100 μg/well of WGA SPA beads. Binding was performed for 60 min at room temperature on a shaker and bound radioactivity was measured on a PerkinElmer 1450 MicroBeta counter. Specific binding was calculated by subtracting remaining radioactivity in the presence of 1000-fold excess of unlabeled S1P. Binding data were analyzed using the GraphPad Prism program.
Measurements of ^35S-GTPγS Binding: Membranes (1 to 10 μg protein) prepared as described above, were incubated in 96-well Scintiplates (PerkinElmer) with test compounds diluted in DMSO, in 180 μl of 20 mM HEPES, pH 7.4, 10 mM MgCl2, 2 μg/well Saponin, 0.2% fatty acid free BSA (Assay buffer), 140 mM NaCl and 1.7 μM GDP. The assay was initiated with the addition of 20 μl of 1.5 nM [35S]-GTPγS (1100 Ci/mmol; GE Healthcare) in assay buffer. After 60 min incubation at 30° C. on a shaker, plates were centrifuged for 10 min at 2000 RPM. Supernatant was discarded and membrane bound radioactivity was measured on a PerkinElmer 1450 MicroBeta counter. Triplicate samples were averaged and expressed as response relative to S1P activation in absence of compound (n=2).

Sequence of S1P3 receptor (Q99500 whole entry): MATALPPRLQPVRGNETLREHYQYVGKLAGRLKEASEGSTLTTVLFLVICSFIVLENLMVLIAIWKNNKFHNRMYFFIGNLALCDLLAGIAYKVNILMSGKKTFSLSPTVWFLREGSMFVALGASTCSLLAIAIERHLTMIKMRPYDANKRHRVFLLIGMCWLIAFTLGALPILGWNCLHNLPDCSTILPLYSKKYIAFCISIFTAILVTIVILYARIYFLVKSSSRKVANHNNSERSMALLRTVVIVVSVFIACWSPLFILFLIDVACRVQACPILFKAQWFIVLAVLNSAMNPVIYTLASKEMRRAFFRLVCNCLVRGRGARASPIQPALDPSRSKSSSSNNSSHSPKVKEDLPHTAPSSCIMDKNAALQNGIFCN
Sequence of S1P1 receptor (P21453 whole entry): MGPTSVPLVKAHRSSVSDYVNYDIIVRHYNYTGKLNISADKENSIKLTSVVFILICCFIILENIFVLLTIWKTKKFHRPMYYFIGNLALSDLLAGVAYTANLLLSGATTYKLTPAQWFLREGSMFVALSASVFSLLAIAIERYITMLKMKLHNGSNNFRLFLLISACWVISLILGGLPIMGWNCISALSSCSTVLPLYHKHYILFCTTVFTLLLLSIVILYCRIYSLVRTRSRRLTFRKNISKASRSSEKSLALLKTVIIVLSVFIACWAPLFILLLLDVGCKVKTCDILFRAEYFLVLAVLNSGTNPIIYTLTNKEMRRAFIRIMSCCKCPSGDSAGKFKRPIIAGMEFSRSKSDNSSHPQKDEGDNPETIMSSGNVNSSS

A word on the EC50: it is the midpoint of the concentration-response curve. Low readings indicate an effect from little substance, high ones a need for much substance. Consider `Fc1ccccc1-n1nnc(-c2nc(-c3cccc(F)c3F)no2)c1-c1ccncc1` [Example 101, 4-[4-[3-(2,3-difluorophenyl)-1,2,4-oxadiazol-5-yl]-1-(2-fluorophenyl)-1H-1,2,3-triazol-5-yl]pyridine], for which the EC50 at S1P1 receptor stood at 9 nM; at S1P3 receptor, 214 nM.

As to `COCc1c(-c2nc(-c3ccccc3)no2)nnn1-c1ccccc1F` [Example 15, 5-[1-(2-Fluorophenyl)-5-(methoxymethyl)-1H-1,2,3-triazole-4-yl]-3-phenyl-1,2,4-oxadiazole], the figures for the EC50 at S1P1 receptor and on S1P3 receptor were 391 nM and over 30000 nM, respectively.

For the molecule `Fc1ccccc1-n1nnc(-c2nc(-c3cccc(Cn4cncn4)c3)no2)c1-c1ccncc1` [Example 61, 4-(1-(2-fluorophenyl)-4-{3-[3-(1H-1,2,4-triazol-1-ylmethyl)phenyl]-1,2,4-oxadiazol-5-yl}-1H-1,2,3-triazol-5-yl)pyridine], the concentration for a half-maximal effect (EC50) was 182 nM on S1P1 receptor and over 20000 nM at S1P3 receptor.

For `COCCc1c(-c2nc(-c3cccnc3)no2)nnn1-c1ccccc1F` [Example 46, 3-{5-[1-(2-fluorophenyl)-5-(2-methoxyethyl)-1H-1,2,3-triazol-4-yl]-1,2,4-oxadiazol-3-yl}pyridine], the EC50 was 516 nM on S1P1 receptor and over 20000 nM at S1P3 receptor.

In the case of `Fc1ccccc1-c1noc(-c2nnn(-c3ccccc3F)c2-c2ccccn2)n1` [Example 27, 2-{1-(2-Fluorophenyl)-4-[3-(2-fluorophenyl)-1,2,4-oxadiazole-5-yl]-1H-1,2,3-triazole-5-yl}pyridine], the figures for the EC50 at S1P1 receptor and at S1P3 receptor were 188 nM and 2890 nM, respectively.

`COc1ccccc1-c1noc(-c2nnn(-c3ccccc3F)c2-c2ccncc2)n1` [Example 40, 4-{1-(2-fluorophenyl)-4-[3-(2-methoxyphenyl)-1,2,4-oxadiazol-5-yl]-1H-1,2,3-triazol-5-yl}pyridine]: the EC50 on S1P1 receptor was 120 nM; at S1P3 receptor it was over 20000 nM.

Regarding `CNCc1ccc(-c2noc(-c3nnn(-c4ccccc4F)c3-c3ccncc3)n2)cc1` [Example 129, 1-(4-{5-[1-(2-fluorophenyl)-5-pyridin-4-yl-1H-1,2,3-triazol-4-yl]-1,2,4-oxadiazol-3-yl}phenyl)-N-methylmethanamine], the EC50 amounted to 10 nM at S1P1 receptor and 4560 nM at S1P3 receptor.

Consider `Fc1ccc(F)c(-c2noc(-c3nnn(-c4ccccc4F)c3C3CCOCC3)n2)c1` [Example 62], for which the EC50 at S1P1 receptor is 46 nM; on S1P3 receptor it was over 20000 nM.

As to `Oc1ccc(-c2noc(-c3nnn(-c4ccccc4F)c3-c3ccccc3)n2)c(F)c1` [Example 18, 3-Fluoro-4-{5-[1-(2-fluorophenyl)-5-phenyl-1H-1,2,3-triazole-4-yl]-1,2,4-oxadiazole-3-yl}phenol], the EC50 amounted to 22 nM on S1P1 receptor and 221 nM on S1P3 receptor.

For `Fc1ccc(-c2noc(-c3nnn(-c4ccccc4F)c3-c3ccccc3)n2)c(F)c1` [Example 11, 3-(2,4-Difluorophenyl)-5-[1-(2-fluorophenyl)-5-phenyl-1H-1,2,3-triazole-4-yl]-1,2,4-oxadiazole], the EC50 is 53 nM on S1P1 receptor and over 30000 nM at S1P3 receptor.

`Cc1ccccc1-c1noc(-c2nnn(-c3ccccc3F)c2-c2ccncc2)n1` [Example 121, 4-{1-(2-fluorophenyl)-4-[3-(2-methylphenyl)-1,2,4-oxadiazol-5-yl]-1H-1,2,3-triazol-5-yl}pyridine]: the figures for the EC50 at S1P1 receptor and at S1P3 receptor were 13 nM and over 20000 nM, respectively.

Turning to `COCc1c(-c2nc(-c3ccc4[nH]ccc4c3)no2)nnn1-c1ccccc1F` [Example 65, 5-{5-[1-(2-fluorophenyl)-5-(methoxymethyl)-1H-1,2,3-triazol-4-yl]-1,2,4-oxadiazol-3-yl}-1H-indole], the results for the EC50 on S1P1 receptor and at S1P3 receptor were 119 nM and over 20000 nM, respectively.

On to `OC1CCN(Cc2ccc(-c3noc(-c4nnn(-c5ccccc5F)c4-c4ccncc4)n3)cc2)C1` (stereo not shown) [Example 142, 1-(4-{5-[1-(2-fluorophenyl)-5-pyridin-4-yl-1H-1,2,3-triazol-4-yl]-1,2,4-oxadiazol-3-yl}benzyl)pyrrolidin-3-ol], for which the figures for the EC50 at S1P1 receptor and on S1P3 receptor were 13 nM and 835 nM, respectively.

On to `CCCCc1c(-c2nc(-c3ccccc3F)no2)nnn1-c1ccccc1F` [Example 16, 5-5-[5-Butyl-1-(2-fluorophenyl)-1H-1,2,3-triazole-4-yl]-3-(2-fluorophenyl)-1,2,4-oxadiazole], for which the figures for the EC50 on S1P1 receptor and at S1P3 receptor were 158 nM and 7360 nM, respectively.

`Fc1ccccc1-n1nnc(-c2nc(-c3ccccc3)no2)c1-c1ccccc1` [Example 14, 5-[1-(2-Fluorophenyl)-5-phenyl-1H-1,2,3-triazole-4-yl]-3-phenyl-1,2,4-oxadiazole]: the values for the EC50 at S1P1 receptor and on S1P3 receptor were 38 nM and 399 nM, respectively.

For the molecule `COCCNCc1ccc(-c2noc(-c3nnn(-c4ccccc4F)c3-c3ccncc3)n2)cc1` [Example 114, N-(4-{5-[1-(2-fluorophenyl)-5-pyridin-4-yl-1H-1,2,3-triazol-4-yl]-1,2,4-oxadiazol-3-yl}benzyl)-2-methoxyethanamine], the 50% effective concentration (EC50) is 50 nM at S1P1 receptor and 6680 nM at S1P3 receptor.

In the case of `O=C(O)C1CN(Cc2ccc(-c3noc(-c4nnn(-c5ccccc5F)c4-c4ccncc4)n3)cc2)C1` [Example 113, 1-(4-{5-[1-(2-fluorophenyl)-5-pyridin-4-yl-1H-1,2,3-triazol-4-yl]-1,2,4-oxadiazol-3-yl}benzyl)azetidine-3-carboxylic acid], the EC50 at S1P1 receptor worked out at 2 nM; at S1P3 receptor, 1370 nM.

As for `COc1cccc(-c2noc(-c3nnn(-c4ccccc4F)c3-c3ccncc3)n2)c1` [Example 51, 4-{1-(2-fluorophenyl)-4-[3-(3-methoxyphenyl)-1,2,4-oxadiazol-5-yl]-1H-1,2,3-triazol-5-yl}pyridine], the results for the EC50 at S1P1 receptor and at S1P3 receptor were 10 nM and 741 nM, respectively.

For `Fc1ccc(-c2noc(-c3nnn(-c4ccccc4F)c3-c3ccncc3)n2)cc1F` [Example 97, 4-[4-[3-(3,4-difluorophenyl)-1,2,4-oxadiazol-5-yl]-1-(2-fluorophenyl)-1H-1,2,3-triazol-5-yl]pyridine], the EC50 on S1P1 receptor was 60 nM; at S1P3 receptor, over 20000 nM.

As for `Fc1ccccc1-c1noc(-c2nnn(-c3ccccc3F)c2-c2ccccc2)n1` [Example 13, 3-(2-Fluorophenyl)-5-[1-(2-fluorophenyl)-5-phenyl-1H-1,2,3-triazole-4-yl]-1,2,4-oxadiazole], the EC50 on S1P1 receptor came to 29 nM; at S1P3 receptor, 486 nM.
